According to patent US20240199558A1, “2,4,6-TRISUBSTITUTED 1,3,5-TRIAZINES AS MODULATORS OF CX3CR1” (ASTRAZENECA AB, priority 2022, published 2024):

What was measured:
[1] = target: T1, CX3CR1 (Homo sapiens (Human), UniProt P49238); assay: Flow adhesion for human B-lymphocyte cell line RPMI-8226; type: cell-based; conditions: RPMI-8226 cells under flow, recombinant full-length CX3CL1
Protocol: (§1) Adhesion of cells to recombinant full-length human CX3CL1 was monitored under physiological flow using a Cellix VenaFlux microfluidics platform with connected fluorescent microscope and camera, and using Vena8 Fluoro+ Biochips (Cellix) pre-coated with anti-His monoclonal antibody (25 μg/mL; R&D Systems) and His-tagged full-length CX3CL1 (15 μg/mL; R&D Systems).
Flow Adhesion for Human B-Lymphocyte Cell Line RPMI-8226
Cells were cultured in RPMI 1640 medium with GlutaMAX and 20% FBS (HyClone, Perbio). Before each experiment, cells were centrifuged at 320 g and resuspended to 5×10^6 cells per ml in RPMI 1640 with 1% FBS. Cells were pre-incubated for 15 minutes at room temperature with CX3CR1 antagonist in an 8-step 3-fold dilution series starting at 3.3 μM. DMSO concentration was kept constant for all antagonist concentrations at 0.1%. Cells were pumped through the channels of the Vena8 Fluoro+ biochip at 0.5 dynes per cm2 for 3 m prior to capturing microscope images for quantification. Cells adhering to channels were counted and the mean values across five images in each channel were used for calculating the concentration-response curves.

[2] = target: T1, CX3CR1; assay: PathHunter β-arrestin recruitment assay; type: cell-based; conditions: CHO-K1 CX3CR1 β-Arrestin cells, with CX3CL1
Protocol: PathHunter β-Arrestin Recruitment Assay
β-Arrestin recruitment was measured using the PathHunter® eXpress enzyme fragment complementation assay (DiscoverX #93-0956E2). 3500 CHO-K1 CX3CR1 β-Arrestin cells/well in Opti-MEM were incubated together with different concentrations of CX3CL1 and antagonistic compound in a Greiner tissue culture treated flat-bottom 384-well plate. After 90 min of incubation at 37° C., the detection reagent supplied in the kit was added and incubation continued for 1 h at room temperature, before reading the luminescence with a Victor2 luminescence plate reader (PerkinElmer). The final DMSO concentration was held constant at 1%.

[3] = target: T1, CX3CR1; assay: CX3CR1-dependent cell adhesion to recombinant CX3CL1 in human whole blood under flow; type: cell-based; conditions: recombinant full-length CX3CL1
Protocol: as §1
CX3CR1-Dependent Cell Adhesion to Recombinant CX3CL1 in Human Whole Blood Under Flow
Human whole blood from healthy volunteers was collected using heparin as anti-coagulant. […] Compound stocks or DMSO vehicle were added to 0.5 or 1.0 ml aliquots of blood such that the final concentration of DMSO was 0.1%, corresponding to a 1000-fold dilution of compound stock. Blood was pre-incubated with compound at room temperature for 60 minutes with gentle shaking. DiOC6 (Invitrogen, 5 μM) or Hoechst 33342 (Invitrogen, 300 μM) dye was subsequently added to fluorescently label cells and enable their detection during the flow adhesion assay. To monitor adhesion, blood was allowed to flow through the channels of a Vena8 Fluoro+ biochip at 2.25 dynes per cm^2 for 3-6 minutes prior to capturing images for quantification. Fluorescent cells adhering to the channels were counted and the mean and/or total count across five to six images in each channel were used for calculating concentration-response curves.

[4] = target: T1, CX3CR1; assay: hCX3CR1 [3H]-AZD8797 competitive binding assay (filter); conditions: CHO-hCX3CR1 membranes, 2 nM [3H]-AZD8797
Procedure, shortened: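 Filtration radioligand displacement assay: competitor titrations compete with 2 nM [3H]-AZD8797 for membranes from CHO cells expressing hCX3CR1 (9 μg/well). Incubation was 2 h at room temperature in HEPES pH 7.4 with MgCl2, CaCl2, 0.5% BSA and 1% DMSO. Filters were washed with ice-cold high-salt (500 mM NaCl) buffer, and retained radioactivity was scintillation-counted.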

[5] = target: T1, CX3CR1; assay: hCX3CR1 [125I]-CX3CL1 displacement binding (SPA); conditions: CHO-hCX3CR1 membranes, [125I]-CX3CL1, SPA beads
Protocol: hCX3CR1 [^125I]-CX3CL1 Displacement Binding (SPA)
CHO-hCX3CR1 membranes (3 μg per well) together with […] [^125I]-CX3CL1 (Perkin Elmer) and different concentrations of competitor compound were incubated together with 400 μg/well WGA coated PVT SPA beads (Perkin Elmer) in 50 mM HEPES (pH 7.4), 10 mM MgCl2, 1 mM EDTA and 0.1% Gelatin in a Greiner polystyrene flat-bottom 384-well plate. The plate was incubated for 20 h at room temperature before the radioactivity was measured using a MicroBeta Trilux reader (PerkinElmer). The DMSO concentration was held constant at 1%.

T1 sequence (P49238 whole entry): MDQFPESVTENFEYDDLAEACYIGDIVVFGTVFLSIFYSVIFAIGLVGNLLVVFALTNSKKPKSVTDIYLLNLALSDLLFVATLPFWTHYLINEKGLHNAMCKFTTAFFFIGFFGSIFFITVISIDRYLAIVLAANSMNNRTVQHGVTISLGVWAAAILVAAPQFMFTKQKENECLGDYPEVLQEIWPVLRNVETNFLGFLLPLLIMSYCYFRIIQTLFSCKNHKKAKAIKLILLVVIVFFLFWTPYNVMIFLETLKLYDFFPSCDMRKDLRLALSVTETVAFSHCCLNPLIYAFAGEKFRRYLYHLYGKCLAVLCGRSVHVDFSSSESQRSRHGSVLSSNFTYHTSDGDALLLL

SMILES | IC50 [1] | EC50 [2] | IC50 [3] | IC50 [4] | IC50 [5]
COc1ncc([C@H](C)Cc2nc(N[C@@H](CO)CC(C)C)nc(NS(C)(=O)=O)n2)cc1F (single isomer, unassigned) [Example 7, N-(4-((R*)-2-(5-Fluoro-6-methoxypyridin-3-yl)propyl)-6-(((R)-1-hydroxy-4-methylpentan-2-yl)amino)-1,3,5-triazin-2-yl)methanesulfonamide] | 128 nM | 400 nM | 2460 nM | 55 nM | > 10000 nM
CC(C)C[C@H](CO)Nc1nc(C[C@@H](C)c2cnc(C3CC3)nc2)nc(NS(C)(=O)=O)n1 (single isomer, unassigned) [Example 12, N-(4-((R*)-2-(2-Cyclopropylpyrimidin-5-yl)propyl)-6-(((R)-1-hydroxy-4-methylpentan-2-yl)amino)-1,3,5-triazin-2-yl)methanesulfonamide] | 255 nM | – | – | 176 nM | 1860 nM
COc1cc(F)c([C@H](C)Cc2nc(N[C@@H](CO)CC(C)C)nc(NS(C)(=O)=O)n2)cn1 (single isomer, unassigned) [Example 46, N-(4-((R*)-2-(4-Fluoro-6-methoxypyridin-3-yl)propyl)-6-(((R)-1-hydroxy-4-methylpentan-2-yl)amino)-1,3,5-triazin-2-yl)methanesulfonamide] | – | 100 nM | 1400 nM | 52 nM | –
COc1ccc([C@@H](C)Cc2nc(N[C@@H](CO)CC(C)C)nc(NS(C)(=O)=O)n2)cn1 (single isomer, unassigned) [Example 75, N-(4-(((R)-1-Hydroxy-4-methylpentan-2-yl)amino)-6-((S*)-2-(6-methoxypyridin-3-yl)propyl)-1,3,5-triazin-2-yl)methanesulfonamide] | > 3000 nM | – | – | 2700 nM | 5180 nM
COc1ccc([C@H](C)Cc2nc(N[C@@H](CO)CC(C)C)nc(NS(C)(=O)=O)n2)cn1 (single isomer, unassigned) [Example 76, N-(4-(((R)-1-Hydroxy-4-methylpentan-2-yl)amino)-6-((R*)-2-(6-methoxypyridin-3-yl)propyl)-1,3,5-triazin-2-yl)methanesulfonamide] | 158 nM | – | – | 48 nM | 886 nM
CC(C)C[C@H](CO)Nc1nc(C[C@@H](C)c2ccc(F)cc2)nc(NS(C)(=O)=O)n1 (single isomer, unassigned) [Example 79, N-(4-((R*)-2-(4-Fluorophenyl)propyl)-6-(((R)-1-hydroxy-4-methylpentan-2-yl)amino)-1,3,5-triazin-2-yl)methanesulfonamide] | 54 nM | – | – | 198 nM | 2470 nM
COc1ccc([C@H](C)Cc2nc(N[C@@H](CO)CC(C)C)nc(NS(C)(=O)=O)n2)c(F)c1 (single isomer, unassigned) [Example 81, N-(4-((R*)-2-(2-Fluoro-4-methoxyphenyl)propyl)-6-(((R)-1-hydroxy-4-methylpentan-2-yl)amino)-1,3,5-triazin-2-yl)methanesulfonamide] | 14 nM | – | 3080 nM | 49 nM | 470 nM
COc1ccc([C@@H](C)Cc2nc(N[C@@H](CO)CC(C)C)nc(NS(C)(=O)=O)n2)c(F)c1 (single isomer, unassigned) [Example 82, N-(4-((S*)-2-(2-Fluoro-4-methoxyphenyl)propyl)-6-(((R)-1-hydroxy-4-methylpentan-2-yl)amino)-1,3,5-triazin-2-yl)methanesulfonamide] | 11 nM | – | – | 128 nM | 566 nM
COc1ccc([C@H](C)Cc2nc(N[C@@H](CO)CC(C)C)nc(NS(C)(=O)=O)n2)c(F)n1 (single isomer, unassigned) [Example 85, N-(4-((R*)-2-(2-Fluoro-6-methoxypyridin-3-yl)propyl)-6-(((R)-1-hydroxy-4-methylpentan-2-yl)amino)-1,3,5-triazin-2-yl)methanesulfonamide] | – | 50 nM | 691 nM | 18 nM | –
CC(C)C[C@H](CO)Nc1nc(C[C@H](C)c2cccc(F)c2F)nc(NS(C)(=O)=O)n1 (single isomer, unassigned) [Example 143, N-(4-((S*)-2-(2,3-Difluorophenyl)propyl)-6-(((R)-1-hydroxy-4-methylpentan-2-yl)amino)-1,3,5-triazin-2-yl)methanesulfonamide] | 522 nM | – | – | 156 nM | 430 nM
CC(C)C[C@H](CO)Nc1nc(C[C@@H](C)c2cccc(F)c2F)nc(NS(C)(=O)=O)n1 (single isomer, unassigned) [Example 144, N-(4-((R*)-2-(2,3-Difluorophenyl)propyl)-6-(((R)-1-hydroxy-4-methylpentan-2-yl)amino)-1,3,5-triazin-2-yl)methanesulfonamide] | 6 nM | 43 nM | 150 nM | 13 nM | 104 nM
CC(C)C[C@H](CO)Nc1nc(C[C@H](C)c2ccccc2F)nc(NS(C)(=O)=O)n1 (single isomer, unassigned) [Example 145, N-(4-((S*)-2-(2-Fluorophenyl)propyl)-6-(((R)-1-hydroxy-4-methylpentan-2-yl)amino)-1,3,5-triazin-2-yl)methanesulfonamide] | 28 nM | – | 543 nM | 129 nM | 637 nM
CC(C)C[C@H](CO)Nc1nc(C[C@@H](C)c2ccccc2F)nc(NS(C)(=O)=O)n1 (single isomer, unassigned) [Example 146, N-(4-((R*)-2-(2-Fluorophenyl)propyl)-6-(((R)-1-hydroxy-4-methylpentan-2-yl)amino)-1,3,5-triazin-2-yl)methanesulfonamide] | 11 nM | – | 233 nM | 23 nM | 180 nM
CC(C)C[C@H](CO)Nc1nc(C[C@@H](C)c2ccccc2)nc(NS(C)(=O)=O)n1 (single isomer, unassigned) [Example 148, N-(4-(((R)-1-Hydroxy-4-methylpentan-2-yl)amino)-6-((R*)-2-phenylpropyl)-1,3,5-triazin-2-yl)methanesulfonamide] | 37 nM | – | 326 nM | 37 nM | 484 nM
